The record followed here is patent US10059701B2 (Merck Patent GmbH, priority 2015, dated 2018).

For orientation: IC50 means the concentration at which inhibition is half-maximal.

Bounds are passed on as bounds.

One assay deals with T1, IRAK1 (Homo sapiens, UniProt P51617).
T1 construct: His-TEV-IRAK1 (194-712); His (N); TEV cleavage site (N)
Description: IRAK1 enzymatic assay (ADP-Glo luminescence). It is filed as biochemical. The note with it: purified human recombinant His-TEV-IRAK1 (194-712). The method, boiled down: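 Luminescent ADP-Glo read-out of ATP turnover by purified His-TEV-IRAK1 (194-712) at 0.3 μg/ml after a 2-hour RT reaction. Compounds, serially diluted from 10 μM to 0.5 nM, were preincubated with enzyme 15 minutes in Hepes pH 7.0 buffer with MgCl2, DTT, EGTA and Triton X-100.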
In general terms: In ADP-Glo the light output rises with the ADP produced.

The next assay deals with T2, IRAK4 (Homo sapiens, UniProt Q9NWZ3).
T2 construct: His-TEV-IRAK4 (1-460); His (N); TEV cleavage site (N)
T2 sequence (Q9NWZ3 1-460): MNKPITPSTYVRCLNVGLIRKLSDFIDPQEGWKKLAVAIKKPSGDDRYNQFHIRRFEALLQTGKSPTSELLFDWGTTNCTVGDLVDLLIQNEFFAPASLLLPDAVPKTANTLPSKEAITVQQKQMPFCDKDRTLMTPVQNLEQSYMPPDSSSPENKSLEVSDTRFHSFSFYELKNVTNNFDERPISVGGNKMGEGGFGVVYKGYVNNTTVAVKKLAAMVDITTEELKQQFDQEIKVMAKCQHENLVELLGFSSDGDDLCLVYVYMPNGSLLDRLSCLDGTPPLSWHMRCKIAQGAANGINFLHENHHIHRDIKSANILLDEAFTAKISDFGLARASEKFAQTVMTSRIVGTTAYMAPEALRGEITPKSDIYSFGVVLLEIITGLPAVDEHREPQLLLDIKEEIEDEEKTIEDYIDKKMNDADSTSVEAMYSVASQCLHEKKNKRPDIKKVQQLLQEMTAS
Description: IRAK4 enzymatic assay (ADP-Glo luminescence). It is filed as biochemical. The note with it: purified human recombinant His-TEV-IRAK4 (1-460), ATP 2 μM. The method, boiled down: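 ADP-Glo luminescence read-out after a 2 h RT kinase reaction with 2 μM ATP and 300 nM biotinylated STK1 peptide. Enzyme (His-TEV-IRAK4 1-460, 0.3 μg/ml) first incubated 15 min with serially diluted compounds (10 μM–0.5 nM) in 50 mM Hepes pH 7.0, 10 mM MgCl2, 5 mM MnCl2.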

T1 sequence (P51617 194-712): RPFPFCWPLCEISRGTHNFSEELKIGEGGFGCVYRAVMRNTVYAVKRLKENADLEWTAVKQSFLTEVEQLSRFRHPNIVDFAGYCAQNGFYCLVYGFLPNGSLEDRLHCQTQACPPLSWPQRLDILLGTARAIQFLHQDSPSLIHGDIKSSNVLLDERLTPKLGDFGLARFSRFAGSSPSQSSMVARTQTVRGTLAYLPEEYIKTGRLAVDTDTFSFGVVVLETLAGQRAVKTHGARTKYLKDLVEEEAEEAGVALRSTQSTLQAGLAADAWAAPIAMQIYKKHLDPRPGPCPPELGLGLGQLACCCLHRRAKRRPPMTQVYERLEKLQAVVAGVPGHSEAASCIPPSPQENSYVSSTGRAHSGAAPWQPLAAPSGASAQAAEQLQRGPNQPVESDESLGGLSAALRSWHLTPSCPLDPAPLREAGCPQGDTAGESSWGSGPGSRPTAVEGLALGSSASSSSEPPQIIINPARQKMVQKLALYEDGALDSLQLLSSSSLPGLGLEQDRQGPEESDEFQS

Turning to `CCNC(=O)N1CCC(n2/c(=N/C(=O)c3cccc(C(F)(F)F)c3)[nH]c3cc(N4CCOCC4=O)ccc32)CC1` [Compound 134, (E)-N-ethyl-4-(5-(3-oxomorpholino)-2-((3-(trifluoromethyl)benzoyl)imino)-2,3-dihydro-1H-benzo[d]imidazol-1-yl)piperidine-1-carboxamide], the IC50 is 0.1 to 1 µM at IRAK1 and at most 0.1 µM at IRAK4.
For `O=C(/N=c1\[nH]c2cc(N3CCCOC3=O)ccc2n1C1CCCC1)c1cccc(C(F)(F)F)c1` [Compound 171, (E)-N-(1-cyclopentyl-5-(2-oxo-1,3-oxazinan-3-yl)-1H-benzo[d]imidazol-2(3H)-ylidene)-3-(trifluoromethyl)benzamide] the same measures were above 1 µM and at most 0.1 µM.
In the same order, the values of `CC1(C)CCOC(=O)N1c1ccc2[nH]c(=NC(=O)c3cccc(C(F)F)c3)n(CCCO)c2c1` [Example 219] are 0.1 to 1 µM and at most 0.1 µM.
For `O=C(/N=c1\[nH]c2cc(N3CCOCC3=O)ccc2n1CCCO)c1cccc(C(F)(F)F)c1F` [Compound 4, (E)-2-fluoro-N-(1-(3-hydroxypropyl)-5-(3-oxomorpholino)-1H-benzo[d]imidazol-2(3H)-ylidene)-3-(trifluoromethyl)benzamide] the same measures were 0.1 to 1 µM and at most 0.1 µM.
`O=C(/N=c1\[nH]c2cc(N3CCOCC3=O)ccc2n1CCCO)c1cccc(-c2cc[nH]c(=O)c2)c1` [Compound 107, (E)-N-(1-(3-hydroxypropyl)-5-(3-oxomorpholino)-1H-benzo[d]imidazol-2(3H)-ylidene)-3-(2-oxo-1,2-dihydropyridin-4-yl)benzamide]: the concentration for half-maximal inhibition (IC50) on IRAK1 and on IRAK4 was at most 0.1 µM in each case.
For `Cn1cnn(-c2ccc3c(c2)[nH]/c(=N\C(=O)c2cccc(C(F)(F)F)c2)n3CCCO)c1=O` [Compound 188, (E)-N-(1-(3-hydroxypropyl)-5-(4-methyl-5-oxo-4,5-dihydro-1H-1,2,4-triazol-1-yl)-1H-benzo[d]imidazol-2(3H)-ylidene)-3-(trifluoromethyl)benzamide], the IC50 on IRAK1 is 0.1 to 1 µM; on IRAK4, at most 0.1 µM.
`CN1CCN(c2ccc3c(c2)[nH]/c(=N\C(=O)c2cccc(C(F)F)c2)n3CCCO)C(=O)C1` [Compound 111, (E)-3-(difluoromethyl)-N-(1-(3-hydroxypropyl)-5-(4-methyl-2-oxopiperazin-1-yl)-1H-benzo[d]imidazol-2(3H)-ylidene)benzamide]: the IC50 on IRAK1 was 0.1 to 1 µM; at IRAK4, at most 0.1 µM.
In the same order, the values of `O=C(/N=c1\[nH]c2cc(N3CCOCC3=O)ccc2n1[C@H]1CCCC[C@@H]1CO)c1cccc(C(F)(F)F)c1` (racemic) [Compound 118, rac-(E)-N-(1-((1S,2S)-2-(hydroxymethyl)cyclohexyl)-5-(3-oxomorpholino)-1H-benzo[d]imidazol-2(3H)-ylidene)-3-(trifluoromethyl)benzamide] are 0.1 to 1 µM and at most 0.1 µM.
For `N#Cc1cccc(C(=O)/N=c2\[nH]c3cc(N4CCCOC4=O)ccc3n2CC2CCCCO2)c1` (stereo not shown) [Compound 161, (E)-3-cyano-N-(5-(2-oxo-1,3-oxazinan-3-yl)-1-((tetrahydro-2H-pyran-2-yl)methyl)-1H-benzo[d]imidazol-2(3H)-ylidene)benzamide] the same measures were at most 0.1 µM and at most 0.1 µM.
In the same order, the values of `O=C(/N=c1\[nH]c2cc(N3CCOCC3=O)ccc2n1CCCO)c1cnccn1` [Compound 72, (E)-N-(1-(3-hydroxypropyl)-5-(3-oxomorpholino)-1H-benzo[d]imidazol-2(3H)-ylidene)pyrazine-2-carboxamide] are above 1 µM and above 1 µM.
For the compound `CC(=O)N1CCC(n2/c(=N/C(=O)c3cccc(C(F)(F)F)c3)[nH]c3cc(N4CCOCC4=O)ccc32)CC1` [Compound 130, (E)-N-(1-(1-acetylpiperidin-4-yl)-5-(3-oxomorpholino)-1H-benzo[d]imidazole-2(3H)-ylidene)-3-(trifluoromethyl)benzamide], the half-maximal inhibitory concentration (IC50) on IRAK1 and at IRAK4 was at most 0.1 µM throughout.
In the case of `O=C(/N=c1\[nH]c2cc(N3CCCOC3=O)ccc2n1CC1(O)CCCC1)c1cccc(C(F)(F)F)c1` [Compound 162, (E)-N-(1-((1-hydroxycyclopentyl)methyl)-5-(2-oxo-1,3-oxazinan-3-yl)-1H-benzo[d]imidazol-2(3H)-ylidene)-3-(trifluoromethyl)benzamide], the half-inhibitory concentration (IC50) at IRAK1 and on IRAK4 was at most 0.1 µM in each case.
In the case of `O=C(/N=c1\[nH]c2cc(N3CCN(C4CC4)CCC3=O)ccc2n1CCCO)c1cccc(C(F)(F)F)c1` [Example 191, (E)-N-(5-(4-cyclopropyl-7-oxo-1,4-diazepan-1-yl)-1-(3-hydroxypropyl)-1H-benzo[d]imidazol-2(3H)-ylidene)-3-(trifluoromethyl)benzamide], the half-maximal inhibitory concentration (IC50) is 0.1 to 1 µM at IRAK1 and at most 0.1 µM on IRAK4.
For `O=C(/N=c1\[nH]c2cc(N3CCCOC3=O)ccc2n1C1CCS(=O)(=O)C1)c1cccc(C(F)(F)F)c1` (stereo not shown) [Compound 157, (E)-N-(1-(1,1-dioxidotetrahydrothiophen-3-yl)-5-(2-oxo-1,3-oxazinan-3-yl)-1H-benzo[d]imidazol-2(3H)-ylidene)-3-(trifluoromethyl)benzamide] the same measures were at most 0.1 µM and at most 0.1 µM.
As to `CC(=O)N1CCC(n2/c(=N/C(=O)c3cccc(C(F)F)c3)[nH]c3cc(N4CCOCC4=O)ccc32)CC1` [Compound 131, (E)-N-(1-(1-acetylpiperidin-4-yl)-5-(3-oxomorpholino)-1H-benzo[d]imidazole-2(3H)-ylidene)-3-(difluoromethyl)benzamide], the IC50 at IRAK1 is 0.1 to 1 µM; at IRAK4 it was at most 0.1 µM.
Consider `O=C(/N=c1\[nH]c2cc(N3CCN(C4CCC4)CC3=O)ccc2n1CCCO)c1cccc(C(F)F)c1` [Compound 184, (E)-N-(5-(4-cyclobutyl-2-oxopiperazin-1-yl)-1-(3-hydroxypropyl)-1H-benzo[d]imidazol-2(3H)-ylidene)-3-(difluoromethyl)benzamide], for which the half-maximal inhibitory concentration (IC50) on IRAK1 and on IRAK4 was at most 0.1 µM throughout.
For `O=C(/N=c1\[nH]c2cc(N3CCNCC3=O)ccc2n1CCCO)c1cccc(C(F)F)c1` [Compound 109, (E)-3-(difluoromethyl)-N-(1-(3-hydroxypropyl)-5-(2-oxopiperazin-1-yl)-1H-benzo[d]imidazol-2(3H)-ylidene)benzamide], the IC50 on IRAK1 is 0.1 to 1 µM; at IRAK4, at most 0.1 µM.
In the same order, the values of `O=C(/N=c1\[nH]c2cc(N3CCOCC3=O)ccc2n1[C@H]1CC[C@@H](CO)CC1)c1cccc(C(F)F)c1` [Compound 123, cis-(E)-3-(difluoromethyl)-N-(1-(4-(hydroxymethyl)cyclohexyl)-5-(3-oxomorpholino)-1H-benzo[d]imidazol-2(3H)-ylidene)benzamide] are at most 0.1 µM and at most 0.1 µM.
On to `CN1CCCN(c2ccc3c(c2)[nH]/c(=N\C(=O)c2cccc(C(F)F)c2)n3CCCO)C1=O` [Example 225, (E)-N-(1-(3-hydroxypropyl)-5-(3-methyl-2-oxotetrahydropyrimidin-1(2H)-yl)-1H-benzo[d]imidazol-2(3H)-ylidene)-3-(difluoromethyl)benzamide], for which the results for the half-inhibitory concentration (IC50) on IRAK1 and at IRAK4 were 0.1 to 1 µM and at most 0.1 µM, respectively.
As for `COc1cc2c(cc1N1CCOCC1=O)[nH]/c(=N\C(=O)c1cccc(C(F)(F)F)c1)n2[C@H](C)CCO` [Compound 143, (R,E)-N-(1-(4-hydroxybutan-2-yl)-6-methoxy-5-(3-oxomorpholino)-1H-benzo[d]imidazol-2(3H)-ylidene)-3-(trifluoromethyl)benzamide], the IC50 at IRAK1 is 0.1 to 1 µM; on IRAK4, at most 0.1 µM.
For `NC(=O)/C=C/c1cccc(C(=O)/N=c2\[nH]c3cc(N4CCOCC4=O)ccc3n2CCCO)c1` [Compound 34, (E)-3-((E)-3-amino-3-oxoprop-1-en-1-yl)-N-(1-(3-hydroxypropyl)-5-(3-oxomorpholino)-1H-benzo[d]imidazol-2(3H)-ylidene)benzamide] the same measures were at most 0.1 µM and at most 0.1 µM.
For `O=C(/N=c1\[nH]c2cc(N3CCOCC3=O)ccc2n1[C@H]1CC[C@@H](O)CC1)c1cccc(C(F)F)c1` [Compound 56, cis-(E)-3-(difluoromethyl)-N-(1-(4-hydroxycyclohexyl)-5-(3-oxomorpholino)-1H-benzo[d]imidazol-2(3H)-ylidene)benzamide] the same measures were at most 0.1 µM and at most 0.1 µM.
In the same order, the values of `O=C(/N=c1\[nH]c2cc(N3CCOCC3=O)ccc2n1C1CCS(=O)(=O)CC1)c1cccc(C(F)F)c1` [Compound 80, (E)-3-(difluoromethyl)-N-(1-(1,1-dioxidotetrahydro-2H-thiopyran-4-yl)-5-(3-oxomorpholino)-1H-benzo[d]imidazol-2(3H)-ylidene)benzamide] are at most 0.1 µM and at most 0.1 µM.
